The source of these data is patent US8912336B2, “Aryl and heteroaryl sulfones as mGluR4 allosteric potentiators, compositions, and methods of treating neurological dysfunction” (Vanderbilt University, priority 2009, dated 2014).

This assay addresses T1, human mGluR4 (Homo sapiens, UniProt Q14833).
T1 construct: expressed in transfected cells; host or cells: Chinese Hamster Ovary (CHO) cells
Put plainly: Potentiation of human mGluR4 in transfected CHO cells, Ca2+-sensitive fluorescent dye, EC20 agonist. Format: cell-based. As to conditions: values in E-notation, unit inferred, read-out: hEC50. The method, then:
The disclosed compounds and compositions can be evaluated for their ability to act as a potentiator of metabotropic glutamate receptor activity, in particular mGluR4 activity, by any suitable known methodology known in the art. For example, Chinese Hamster Ovary (CHO) cells transfected with human mGluR4 or HEK cells co-transfected with rat mGluR4 and the G-protein regulated Inwardly Rectifying Potassium channel (GIRK) were plated in clear bottom assay plates for assay in a Hamamatsu FDSS Fluorometric Plate Reader. The cells were loaded with either a Ca2+-sensitive fluorescent dye or the thallium responsive dye and the plates were washed and placed into a suitable kinetic plate reader. For human mGluR4 assays, a fluorescence baseline was established for 3-5 seconds, the disclosed compounds were then added to the cells, and the response in cells was measured. Approximately two and a half minutes later, a concentration of mGluR4 orthosteric agonist (e.g. glutamate or L-AP4) eliciting approximately 20% (EC20) of the maximal agonist response was added to the cells, and the response was measured. Two minutes later, a concentration of mGluR4 agonist (e.g. glutamate or L-AP4) eliciting 80% (EC80) of the maximal agonist response was added to the cells, and the response was measured. For rat mGluR4/GIRK experiments, a baseline was established for approximately five seconds, disclosed compounds were added, and either an EC20 or EC80 concentration of agonist was added approximately two and one half minutes later.
The above described assay operated in two modes. In the first mode, a range of concentrations of the disclosed compounds are added to cells, followed by a single fixed concentration of agonist. If the compound acts as a potentiatior, an EC50 value for potentiation and a maximum extent of potentiation by the compound at this concentration of agonist is determined by non-linear curve fitting. If the compound acts as a noncompetitive antagonist, an IC50 value is determined by non-linear curve fitting. In the second mode, several fixed concentrations of the disclosed compounds are added to various wells on a plate, followed by a range in concentrations of agonist for each concentration of disclosed compound. The EC50 values for the agonist at each concentration of compound are determined by non-linear curve fitting. A decrease in the EC50 value of the agonist with increasing concentrations of the sample compound (a leftward shift of the agonist concentration-response curve) is an indication of the degree of mGluR4 potentiation at a given concentration of the sample compound. A decrease in the maximal response of the agonist with increasing concentrations of the sample compounds, with or without a rightward shift in agonist potency, is an indication of the degree of noncompetitive antagonism at mGluR4. The second mode also indicates whether the sample compounds also affect the maximum response to mGluR4 to agonists.

T1 sequence (Q14833 33-912): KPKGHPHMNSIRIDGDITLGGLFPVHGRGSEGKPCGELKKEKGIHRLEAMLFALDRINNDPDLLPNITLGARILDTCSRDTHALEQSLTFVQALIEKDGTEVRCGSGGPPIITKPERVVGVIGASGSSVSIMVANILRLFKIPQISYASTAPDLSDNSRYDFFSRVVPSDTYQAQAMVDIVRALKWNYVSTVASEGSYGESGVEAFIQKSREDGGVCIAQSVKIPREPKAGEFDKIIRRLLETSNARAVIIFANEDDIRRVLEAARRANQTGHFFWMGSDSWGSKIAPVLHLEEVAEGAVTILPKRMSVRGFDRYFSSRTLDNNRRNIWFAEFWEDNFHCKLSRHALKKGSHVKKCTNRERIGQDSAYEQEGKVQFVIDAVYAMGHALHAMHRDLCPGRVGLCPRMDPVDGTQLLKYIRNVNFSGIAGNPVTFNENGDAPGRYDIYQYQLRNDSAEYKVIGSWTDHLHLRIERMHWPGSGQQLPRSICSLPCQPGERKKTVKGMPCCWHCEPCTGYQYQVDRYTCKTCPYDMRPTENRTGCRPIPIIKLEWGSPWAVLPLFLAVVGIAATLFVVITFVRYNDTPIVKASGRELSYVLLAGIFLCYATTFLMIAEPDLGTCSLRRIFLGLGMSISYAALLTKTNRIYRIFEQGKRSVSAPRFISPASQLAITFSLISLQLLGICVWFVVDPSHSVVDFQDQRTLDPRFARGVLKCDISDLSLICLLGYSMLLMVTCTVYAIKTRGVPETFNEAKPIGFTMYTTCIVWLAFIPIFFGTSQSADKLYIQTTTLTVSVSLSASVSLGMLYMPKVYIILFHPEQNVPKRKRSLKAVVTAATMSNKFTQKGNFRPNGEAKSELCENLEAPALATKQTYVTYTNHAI

As for `Clc1ccccc1CSc1ccc2[nH]c(-c3ccccn3)nc2c1` [Example 1, 5-(2-Chlorobenzylthio)-2-(pyridin-2-yl)-1H-benzo[d]imidazole], the EC50 was 2480 nM.
With `O=S(=O)(Cc1ccccc1Cl)c1ccc2[nH]c(-c3ccccn3)nc2c1` [Example 2, 5-(2-Chlorobenzylsulfonyl)-2-(pyridin-2-yl)-1H-benzo[d]imidazole], the EC50 was 421 nM.
For `Fc1ccccc1CSc1ccc2[nH]c(-c3ccccn3)nc2c1` [Example 3, 5-((2-fluorobenzyl)thio)-2-(pyridin-2-yl)-1H-benzo[d]imidazole] the value was 2450 nM.
With `O=S(=O)(Cc1ccccc1F)c1ccc2[nH]c(-c3ccccn3)nc2c1` [Example 4, 5-((2-fluorobenzyl)sulfonyl)-2-(pyridin-2-yl)-1H-benzo[d]imidazole], the EC50 worked out at 330 nM.
For `O=S(=O)(Cc1ccccc1Cl)c1cc2nc(-c3ccccn3)[nH]c2cc1Cl` [Example 5, 6-chloro-5-((2-chlorobenzyl)sulfonyl)-2-(pyridin-2-yl)-1H-benzo[d]imidazole] the value was 350 nM; for `O=S(=O)(Cc1ccc(Cl)cc1Cl)c1ccc2[nH]c(-c3ccccn3)nc2c1` [Example 6, 5-((2,4-dichlorobenzyl)sulfonyl)-2-(pyridin-2-yl)-1H-benzo[d]imidazole], 56.8 nM.
Regarding `O=S(=O)(Cc1cc(F)ccc1F)c1ccc2[nH]c(-c3ccccn3)nc2c1` [Example 7, 5-((2,5-difluorobenzyl)sulfonyl)-2-(pyridin-2-yl)-1H-benzo[d]imidazole], the EC50 came out at 434 nM.
Next, `O=S(=O)(Cc1ccc(F)cc1F)c1ccc2[nH]c(-c3ccccn3)nc2c1` [Example 8, 5-((2,4-difluorobenzyl)sulfonyl)-2-(pyridin-2-yl)-1H-benzo[d]imidazole]: 209 nM.
As for `O=S(=O)(Cc1c(F)cccc1F)c1ccc2[nH]c(-c3ccccn3)nc2c1` [Example 9, 5-((2,6-difluorobenzyl)sulfonyl)-2-(pyridin-2-yl)-1H-benzo[d]imidazole], the EC50 turned out to be 155 nM.
Regarding `O=S(=O)(Cc1cc(F)c(F)cc1F)c1ccc2[nH]c(-c3ccccn3)nc2c1` [Example 10, 2-(pyridin-2-yl)-5-((2,4,5-trifluorobenzyl)sulfonyl)-1H-benzo[d]imidazole], the EC50 turned out to be 462 nM.
For the compound `O=S(=O)(Cc1ccccc1Cl)c1ccc2[nH]c(-c3cccc(Cl)n3)nc2c1` [Example 11, 5-((2-chlorobenzyl)sulfonyl)-2-(6-chloropyridin-2-yl)-1H-benzo[d]imidazole], the EC50 was determined as 75.4 nM.
As for `O=S(=O)(Cc1ccccc1Cl)c1ccc2[nH]c(-c3nccs3)nc2c1` [Example 12, 2-(5-((2-chlorobenzyl)sulfonyl)-1H-benzo[d]imidazol-2-yl)thiazole], the EC50 was found to be 1450 nM.
With `O=S(=O)(Cc1ccccc1Cl)c1ccc2[nH]c(-c3cscn3)nc2c1` [Example 13, 4-(5-((2-chlorobenzyl)sulfonyl)-1H-benzo[d]imidazol-2-yl)thiazole], the EC50 was 1840 nM.
For `O=S(=O)(Cc1ccccc1Cl)c1ccc2[nH]c(-c3ncc(F)cc3F)nc2c1` [Example 14, 5-((2-chlorobenzyl)sulfonyl)-2-(3,5-difluoropyridin-2-yl)-1H-benzo[d]imidazole] the value was 450 nM; for `O=S(=O)(Cc1ccccc1Cl)c1ccc2[nH]c(-c3cccc(F)n3)nc2c1` [Example 15, 5-((2-chlorobenzyl)sulfonyl)-2-(6-fluoropyridin-2-yl)-1H-benzo[d]imidazole], 927 nM; for `O=S(=O)(Cc1ccccc1Cl)c1ccc2[nH]c(-c3ncccc3F)nc2c1` [Example 16, 5-((2-chlorobenzyl)sulfonyl)-2-(3-fluoropyridin-2-yl)-1H-benzo[d]imidazole], 221 nM.
Regarding `[O-][S+](Cc1ccccc1Cl)c1cc2nc(-c3ccccn3)[nH]c2cc1Cl` (stereo not shown) [Example 17, 6-chloro-5-((2-chlorobenzyl)sulfinyl)-2-(pyridin-2-yl)-1H-benzo[d]imidazole], the EC50 turned out to be 2410 nM.
For `O=S(=O)(Cc1ccc(Cl)cc1F)c1ccc2[nH]c(-c3cccc[n+]3O)nc2c1` [Example 18, 2-(5-((4-chloro-2-fluorobenzyl)sulfonyl)-1H-benzo[d]imidazol-2-yl)-1-hydroxypyridin-1-ium] the value was 272 nM.
For `O=S(=O)(Cc1ccc(Cl)cc1F)c1ccc2[nH]c(-c3ccccn3)nc2c1` [Example 19, 5-((4-chloro-2-fluorobenzyl)sulfonyl)-2-(pyridin-2-yl)-1H-benzo[d]imidazole] the value was 82.3 nM; for `O=S(=O)(Cc1cccc(Cl)c1F)c1ccc2[nH]c(-c3cccc[n+]3O)nc2c1` [Example 20, 2-(5-((3-chloro-2-fluorobenzyl)sulfonyl)-1H-benzo[d]imidazol-2-yl)-1-hydroxypyridin-1-ium], 1060 nM.
As to `O=S(=O)(Cc1cccc(Cl)c1F)c1ccc2[nH]c(-c3ccccn3)nc2c1` [Example 21, 5-((3-chloro-2-fluorobenzyl)sulfonyl)-2-(pyridin-2-yl)-1H-benzo[d]imidazole], the EC50 was 194 nM.
For `O=S(=O)(Cc1c(F)cccc1Cl)c1ccc2[nH]c(-c3ccccn3)nc2c1` [Example 22, 5-((2-chloro-6-fluorobenzyl)sulfonyl)-2-(pyridin-2-yl)-1H-benzo[d]imidazole] the value was 55.3 nM; for `O=S(=O)(Cc1ccc(Cl)cc1Cl)c1cc2nc(-c3ccccn3)[nH]c2cc1Cl` [Example 23, 6-chloro-5-((2,4-dichlorobenzyl)sulfonyl)-2-(pyridin-2-yl)-1H-benzo[d]imidazole], 1520 nM.
For `O=S(=O)(Cc1c(F)cccc1Cl)c1cc2nc(-c3ccccn3)[nH]c2cc1Cl` [Example 24, 6-chloro-5-((2-chloro-6-fluorobenzyl)sulfonyl)-2-(pyridin-2-yl)-1H-benzo[d]imidazole] the value was 112 nM; for `O=S(=O)(Cc1ccccc1Cl)c1cc2nc(-c3ccccn3)[nH]c2cc1F` [Example 25, 5-((2-chlorobenzyl)sulfonyl)-6-fluoro-2-(pyridin-2-yl)-1H-benzo[d]imidazole], 341 nM.
For `O=S(=O)(Cc1ccc(Cl)cc1F)c1cc2nc(-c3ccccn3)[nH]c2cc1Cl` [Example 26, 6-chloro-5-((4-chloro-2-fluorobenzyl)sulfonyl)-2-(pyridin-2-yl)-1H-benzo[d]imidazole] the value was 446 nM.
On to `O=C(Nc1ccc(S(=O)(=O)Cc2ccccc2Cl)cc1)c1ccccn1` [Example 27, N-(4-((2-chlorobenzyl)sulfonyl)phenyl)picolinamide], for which the EC50 was determined as 237 nM.
Next, `O=C(Nc1ccc(S(=O)(=O)Cc2ccccc2Cl)cc1)c1ccco1` [Example 28, N-(4-((2-chlorobenzyl)sulfonyl)phenyl)furan-2-carboxamide]: 427 nM; `O=C(Nc1ccc(S(=O)(=O)Cc2ccccc2Cl)cc1)c1cccc(Cl)n1` [Example 30, 6-chloro-N-(4-((2-chlorobenzyl)sulfonyl)phenyl)picolinamide]: 1100 nM.
Take `O=C(Nc1ccc(S(=O)(=O)Cc2ccccc2Cl)cc1)c1ncccc1F` [Example 31, N-(4-((2-chlorobenzyl)sulfonyl)phenyl)-3-fluoropicolinamide]: the EC50 amounted to 730 nM.
In the case of `Cc1cccc(C(=O)Nc2ccc(S(=O)(=O)Cc3ccccc3Cl)cc2)n1` [Example 32, N-(4-((2-chlorobenzyl)sulfonyl)phenyl)-6-methylpicolinamide], the EC50 came to 5400 nM.
